From patent US9789199B2, “MetAP-2 inhibitor polymersomes for therapeutic administration” (priority 2007, dated 2017)
“Also recorded” adds a separate entry of the source.

Experiments:
LLC tumors = test: Oral Lodamin vs free TNP-470, primary Lewis lung carcinoma tumor experiments; type: in vivo, mouse; conditions: free TNP-470 given orally, 30 mg/kg q.o.d.
Experimental: For tumor experiments: LLC cells (1×10^6) or B16/F10 melanoma cells (1×10^6) were implanted subcutaneously in 8 week old C57Bl/6J male mice (Jackson Laboratories, Bar Harbor, Me.). Oral availability of free TNP-470 was compared to that of Lodamin. A dose of 30 mg/kg q.o.d. of free TNP-470 and an equivalent dose of Lodamin (Lodamin, 6 mg in 100 μl/d) were administered to LLC tumor bearing mice (˜100 mm^3) and tumor growth was followed for 18 d. Free drug was given as a suspension in double distilled water and freshly prepared before each dose. Additionally, we compared different doses and frequencies of Lodamin treatment: 15 mg/kg q.d., 15 mg/kg q.o.d. and 30 mg/kg q.o.d. To eliminate any possible effect of the vehicle (polymer without drug) one group of mice was given micelles without drug and tumor progression was compared to water treated mice.
For the melanoma tumor experiment, a dose of 15 mg/kg q.d. Lodamin was administered to B16/F10 melanoma bearing mice. In all experiments, tumor size and animal weight were monitored every 2 d. Tumor volume was measured with calipers in two diameters as follows: (width)^2×(length)×0.52. Note that all the above Lodamin doses are presented as TNP-470 equivalent.

[1] = Body distribution and serum levels after oral administration; type: in vivo, mouse; conditions: post-administration
Experimental: For all biodistribution studies we used a fluorescent marker for tracking Lodamin. Mice were administered 6-coumarin labeled mPEG-PLA by oral gavage for 3 d (100 μl of 1.5 mg/ml). On the third day of treatment, after 8 h of fasting, animals were sacrificed and spleen, kidney, brain, lungs, liver, intestine, stomach, and bladder were collected. The fluorescent 6-coumarin was extracted from the tissues by incubation with formamide for 48 h at 25° C. Samples were centrifuged and signal intensity of fluorescence of supernatants was detected with a Wallac 1420 VICTOR plate-reader (Perkin-Elmer Life Sciences) with excitation/emission at 488 nm/530 nm. […] Tissue autofluorescence was corrected by subtracting the fluorescent signal of non-treated mouse organs from the respective readings in treated mice. Similarly, levels of fluorescent signal in mouse sera were measured in different time points (1, 2, 4, 8, 24, 48 and 72 h) using excitation/emission readings at 488 nm/530 nm.
In order to analyze cell uptake in the different tissues in tumor bearing mice, PEG-PLA-rhodamine micelles (100 μl of 1.5 mg/ml) or water were orally administered to C57Bl/6J mice bearing LLC tumors (200 mm^3) for 3 d. […] These suspensions were analyzed by flow cytometry in order to quantify the uptake of micelles into different tissue cells when compared to those in the untreated mouse.

[2] = Balance beam motor coordination test (neurotoxicity); type: in vivo, mouse; conditions: free TNP-470 injected subcutaneously 30 mg/kg q.o.d., vs control
Experimental: A slightly modified balance beam motor coordination test was performed on three groups of mice: Oral Lodamin treated mice (30 mg/kg eq. q.o.d.), free TNP-470 (30 mg/kg) subcutaneously injected mice and water treated mice (administered by gavage). The mice were pretreated for 14 d (n=4-5 per group) and then the mice were allowed to acclimate to the procedure room for 1 h, after which they were trained in 3 trials to cross a wide (20 mm width×1 m length) balance beam. All the mice crossed the wide beam without making foot-slip errors. The mice were then trained on a narrow (4 mm width×1 m length) beam for 3 trials. At the end of the training trials, no freezing behavior was observed, and the mice would start to walk within 4 seconds of being placed on the beam. The mice were then videotaped as they performed in 3 test trials of 3 beam crossings each—a total of 9 crossings per mouse. The 3 trials were separated by at least 1 h to avoid fatigue of the mice. Videotaped crossings were scored for number of foot-slip errors and time to cross. All experiments and scoring of the different groups were performed by an investigator who has been no knowledge regarding the treatment regime of the mice.

RAGE and HMGB-1 = RAGE and HMGB-1 protein levels in HMVEC; type: cell-based; conditions: 0.1-100 nM
Experimental: A dose dependent effect on RAGE expression was detected.
RPE cells were cultivated as has been previously described^59. […] HMVECs, were purchased from Cambrex Bio Science Inc. (Rockland, Me.) and were maintained on collagen I coated plates with endothelial cell growth medium containing 2% FBS (EGM-2; Cambrex, Inc.) at 37° C. with humidified 95% air/5% CO2.
Lodamin Reduces MCP-1 and VEGF Induced Vessel Permeability

[3] = system: murine, human and metastatic tumors; conditions: mice, cited from earlier work
obesity = conditions: mice; cited from earlier work
[4] = high chemotherapeutic doses; cited from earlier work
[5] = parent drug; cited from earlier work

Q: Which “effect on growth of subcutaneous LLC tumors” value (LLC tumors) does the source give for “6-O—(N-chloroacetylcarbamoyl)fumagillol [TNP-470]” here?
A: no inhibition; also recorded: had no effect

Q: What about the “time up to which free drug was detected in mice sera” value [1] of the same substance?
A: up to 2 h

Q: And the “balance beam foot-slip errors” value [2]?
A: over twice as many errors

Q: What about the “RAGE and HMGB-1 levels” value (RAGE and HMGB-1) of the same substance?
A: reduced in a dose dependent manner

Q: What about the “inhibition of growth of human tumors” value [3] of the same substance?
A: up to 100%

Q: And the “inhibition of growth of metastatic tumors” value [3]?
A: up to 100%

Q: What about the “inhibition of growth of murine tumors” value ([3]; mostly 30 mg/kg subcutaneously every other day) of the same substance?
A: up to 91%

Q: What about the effect on obesity (obesity) of the same substance?
A: prevent diet-induced and genetic obesity

Q: What about the neurotoxicity in patients [4] of the same substance?
A: many patients experience neurotoxicity

Q: And the plasma half-life [5]?
A: a few minutes
